Test results reported in ChEMBL document CHEMBL5291721, “A preclinical secondary pharmacology resource illuminates target-adverse drug reaction associations of marketed drugs” (Nat Commun, 2023).

How the values were obtained:
[1] = target: Bile salt export pump (Homo sapiens, UniProt O95342); type: functional
[2] = target: T1, Cholecystokinin receptor type A (Homo sapiens, UniProt P32238)
T1 sequence (P32238 whole entry): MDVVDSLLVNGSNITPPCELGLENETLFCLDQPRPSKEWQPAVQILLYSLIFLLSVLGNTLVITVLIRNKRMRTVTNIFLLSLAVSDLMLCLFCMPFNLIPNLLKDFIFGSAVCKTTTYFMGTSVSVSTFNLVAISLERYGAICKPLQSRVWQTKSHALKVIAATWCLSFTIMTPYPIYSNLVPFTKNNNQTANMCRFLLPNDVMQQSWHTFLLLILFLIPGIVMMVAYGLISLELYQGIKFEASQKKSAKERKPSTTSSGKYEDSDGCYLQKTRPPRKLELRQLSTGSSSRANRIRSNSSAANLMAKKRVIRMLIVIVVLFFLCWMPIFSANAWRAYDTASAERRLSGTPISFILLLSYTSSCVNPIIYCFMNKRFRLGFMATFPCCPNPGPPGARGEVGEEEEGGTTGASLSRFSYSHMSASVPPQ

[3] = target: cGMP-inhibited 3',5'-cyclic phosphodiesterase 3A (Homo sapiens, UniProt Q14432); type: functional
[4] = target: Motilin receptor (Homo sapiens, UniProt O43193)
[5] = target: T2, Alpha-2C adrenergic receptor (Homo sapiens, UniProt P18825); type: functional
T2 sequence (P18825 whole entry): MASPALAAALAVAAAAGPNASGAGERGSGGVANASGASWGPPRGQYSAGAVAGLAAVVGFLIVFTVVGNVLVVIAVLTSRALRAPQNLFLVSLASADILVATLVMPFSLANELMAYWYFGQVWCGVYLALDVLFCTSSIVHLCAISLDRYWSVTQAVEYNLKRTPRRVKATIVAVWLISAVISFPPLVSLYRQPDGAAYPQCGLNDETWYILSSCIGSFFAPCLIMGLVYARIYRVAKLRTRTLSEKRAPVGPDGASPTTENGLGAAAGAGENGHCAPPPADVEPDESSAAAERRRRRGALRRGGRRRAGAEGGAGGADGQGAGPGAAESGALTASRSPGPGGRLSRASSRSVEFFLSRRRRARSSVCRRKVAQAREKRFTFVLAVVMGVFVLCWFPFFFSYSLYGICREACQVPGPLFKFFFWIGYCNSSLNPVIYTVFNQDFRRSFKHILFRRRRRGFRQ

[6] = target: D(1A) dopamine receptor (Homo sapiens, UniProt P21728); type: functional, cell-based
[7] = target: D(3) dopamine receptor (Homo sapiens, UniProt P35462)
[8] = target: Gamma-aminobutyric acid receptor subunit alpha-1 (Rattus norvegicus, UniProt P62813); type: functional
[9] = target: T3, Alpha-2A adrenergic receptor (Homo sapiens, UniProt P08913); type: functional, cell-based
T3 sequence (P08913 whole entry): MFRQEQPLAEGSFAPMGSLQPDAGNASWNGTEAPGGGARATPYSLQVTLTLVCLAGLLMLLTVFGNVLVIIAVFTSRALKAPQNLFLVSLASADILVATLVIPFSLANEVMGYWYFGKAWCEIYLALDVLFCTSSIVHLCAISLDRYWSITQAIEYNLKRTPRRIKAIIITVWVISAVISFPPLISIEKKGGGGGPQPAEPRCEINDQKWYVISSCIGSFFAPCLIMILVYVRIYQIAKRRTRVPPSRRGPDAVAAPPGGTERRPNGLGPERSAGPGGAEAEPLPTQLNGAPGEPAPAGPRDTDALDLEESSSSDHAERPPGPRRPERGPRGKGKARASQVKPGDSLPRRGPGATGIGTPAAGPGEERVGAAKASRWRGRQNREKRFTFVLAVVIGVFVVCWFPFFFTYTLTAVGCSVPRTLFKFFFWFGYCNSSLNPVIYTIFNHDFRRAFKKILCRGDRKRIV

[10] = target: Sodium-dependent noradrenaline transporter (Homo sapiens, UniProt P23975)
[11] = target: Sodium-dependent dopamine transporter (Homo sapiens, UniProt Q01959)
[12] = target: T4, Adenosine receptor A1 (Homo sapiens, UniProt P30542)
T4 sequence (P30542 whole entry): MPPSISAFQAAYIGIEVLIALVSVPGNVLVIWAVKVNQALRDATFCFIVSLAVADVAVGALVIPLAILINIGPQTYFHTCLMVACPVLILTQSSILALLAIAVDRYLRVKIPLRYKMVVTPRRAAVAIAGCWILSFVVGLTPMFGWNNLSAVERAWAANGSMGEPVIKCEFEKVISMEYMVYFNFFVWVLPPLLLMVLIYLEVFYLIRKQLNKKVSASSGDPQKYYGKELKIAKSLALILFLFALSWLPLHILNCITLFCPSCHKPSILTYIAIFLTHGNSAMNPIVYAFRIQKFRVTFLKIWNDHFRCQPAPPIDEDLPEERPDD

[13] = target: T5, Prostaglandin G/H synthase 1 (Rattus norvegicus, UniProt Q63921); type: functional
T5 sequence (Q63921 whole entry): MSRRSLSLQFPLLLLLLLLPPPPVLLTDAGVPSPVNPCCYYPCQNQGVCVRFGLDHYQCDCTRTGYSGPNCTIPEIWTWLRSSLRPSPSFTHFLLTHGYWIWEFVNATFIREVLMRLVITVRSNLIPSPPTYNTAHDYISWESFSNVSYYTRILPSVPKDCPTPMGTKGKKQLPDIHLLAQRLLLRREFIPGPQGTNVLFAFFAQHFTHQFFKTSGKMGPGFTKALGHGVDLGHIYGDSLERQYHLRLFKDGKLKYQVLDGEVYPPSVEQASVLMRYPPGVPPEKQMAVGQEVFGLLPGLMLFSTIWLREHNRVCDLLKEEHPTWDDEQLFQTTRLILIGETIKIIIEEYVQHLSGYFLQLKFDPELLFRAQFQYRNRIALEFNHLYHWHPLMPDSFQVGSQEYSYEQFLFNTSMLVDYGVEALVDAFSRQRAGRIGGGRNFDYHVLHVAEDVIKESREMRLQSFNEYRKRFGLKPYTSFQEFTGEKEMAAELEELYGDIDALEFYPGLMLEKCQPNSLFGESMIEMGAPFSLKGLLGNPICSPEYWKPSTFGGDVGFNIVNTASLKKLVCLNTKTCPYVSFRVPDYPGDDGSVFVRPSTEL
Note: assay procedure not described here.

Motilin receptor, sequence (O43193 whole entry): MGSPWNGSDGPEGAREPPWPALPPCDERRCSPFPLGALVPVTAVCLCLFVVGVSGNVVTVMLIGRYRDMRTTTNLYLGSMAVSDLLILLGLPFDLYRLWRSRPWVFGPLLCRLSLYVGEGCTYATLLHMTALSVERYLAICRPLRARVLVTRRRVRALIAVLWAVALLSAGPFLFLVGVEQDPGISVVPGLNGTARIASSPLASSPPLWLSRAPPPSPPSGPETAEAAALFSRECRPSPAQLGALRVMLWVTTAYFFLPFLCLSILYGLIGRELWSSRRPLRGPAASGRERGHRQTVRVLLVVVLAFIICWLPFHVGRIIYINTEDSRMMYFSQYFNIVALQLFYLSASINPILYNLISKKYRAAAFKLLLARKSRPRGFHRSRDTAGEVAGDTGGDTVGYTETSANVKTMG
Bile salt export pump, sequence (O95342 whole entry): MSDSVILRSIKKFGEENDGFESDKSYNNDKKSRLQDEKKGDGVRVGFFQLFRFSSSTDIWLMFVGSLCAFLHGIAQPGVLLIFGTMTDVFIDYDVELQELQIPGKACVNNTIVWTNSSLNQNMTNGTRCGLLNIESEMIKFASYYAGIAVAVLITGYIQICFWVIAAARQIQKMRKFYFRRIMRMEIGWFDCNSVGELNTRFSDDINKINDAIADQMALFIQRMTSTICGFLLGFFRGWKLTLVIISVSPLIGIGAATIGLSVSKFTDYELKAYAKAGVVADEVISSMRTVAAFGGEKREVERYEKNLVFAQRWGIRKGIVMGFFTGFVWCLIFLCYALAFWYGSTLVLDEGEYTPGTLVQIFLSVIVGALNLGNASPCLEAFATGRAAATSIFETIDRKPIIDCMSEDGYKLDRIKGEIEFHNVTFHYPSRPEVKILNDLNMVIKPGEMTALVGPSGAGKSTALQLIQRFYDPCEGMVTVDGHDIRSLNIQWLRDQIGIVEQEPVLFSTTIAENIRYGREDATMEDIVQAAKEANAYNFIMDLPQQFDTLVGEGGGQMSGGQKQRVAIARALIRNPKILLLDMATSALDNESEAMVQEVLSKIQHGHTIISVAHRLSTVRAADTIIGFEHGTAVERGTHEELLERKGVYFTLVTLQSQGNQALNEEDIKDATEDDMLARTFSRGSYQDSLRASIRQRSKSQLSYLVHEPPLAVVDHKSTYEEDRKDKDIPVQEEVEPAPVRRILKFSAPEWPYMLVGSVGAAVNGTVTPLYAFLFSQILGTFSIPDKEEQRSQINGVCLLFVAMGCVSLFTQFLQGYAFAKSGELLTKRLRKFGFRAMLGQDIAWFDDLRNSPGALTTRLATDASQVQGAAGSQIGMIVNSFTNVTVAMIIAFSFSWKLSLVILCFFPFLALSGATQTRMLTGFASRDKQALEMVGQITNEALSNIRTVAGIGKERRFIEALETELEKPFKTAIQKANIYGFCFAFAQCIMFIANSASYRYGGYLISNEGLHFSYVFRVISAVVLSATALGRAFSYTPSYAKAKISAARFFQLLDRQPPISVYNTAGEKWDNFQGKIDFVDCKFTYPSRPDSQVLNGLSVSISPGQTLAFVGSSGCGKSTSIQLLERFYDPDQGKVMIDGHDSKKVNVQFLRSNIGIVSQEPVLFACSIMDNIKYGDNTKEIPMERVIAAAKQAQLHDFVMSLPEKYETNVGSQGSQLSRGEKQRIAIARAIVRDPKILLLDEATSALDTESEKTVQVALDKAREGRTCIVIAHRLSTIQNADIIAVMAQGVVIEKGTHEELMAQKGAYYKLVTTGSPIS
Sodium-dependent dopamine transporter, sequence (Q01959 whole entry): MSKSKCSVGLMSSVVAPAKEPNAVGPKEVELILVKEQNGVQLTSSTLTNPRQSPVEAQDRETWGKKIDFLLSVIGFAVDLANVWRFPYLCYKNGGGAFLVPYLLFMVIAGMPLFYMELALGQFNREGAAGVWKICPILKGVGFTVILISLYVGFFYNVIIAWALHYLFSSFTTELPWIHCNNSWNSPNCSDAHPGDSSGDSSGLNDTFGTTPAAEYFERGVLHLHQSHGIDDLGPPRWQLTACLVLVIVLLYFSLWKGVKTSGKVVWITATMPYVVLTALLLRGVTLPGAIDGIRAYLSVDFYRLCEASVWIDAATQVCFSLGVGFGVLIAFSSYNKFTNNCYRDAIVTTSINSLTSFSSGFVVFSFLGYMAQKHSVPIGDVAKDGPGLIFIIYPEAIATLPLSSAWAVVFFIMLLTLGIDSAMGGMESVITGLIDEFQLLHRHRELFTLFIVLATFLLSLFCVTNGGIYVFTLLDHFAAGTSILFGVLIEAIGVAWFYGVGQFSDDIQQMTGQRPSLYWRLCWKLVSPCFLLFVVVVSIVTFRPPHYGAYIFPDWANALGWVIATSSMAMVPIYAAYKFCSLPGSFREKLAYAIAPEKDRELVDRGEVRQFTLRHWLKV
Gamma-aminobutyric acid receptor subunit alpha-1, sequence (P62813 whole entry): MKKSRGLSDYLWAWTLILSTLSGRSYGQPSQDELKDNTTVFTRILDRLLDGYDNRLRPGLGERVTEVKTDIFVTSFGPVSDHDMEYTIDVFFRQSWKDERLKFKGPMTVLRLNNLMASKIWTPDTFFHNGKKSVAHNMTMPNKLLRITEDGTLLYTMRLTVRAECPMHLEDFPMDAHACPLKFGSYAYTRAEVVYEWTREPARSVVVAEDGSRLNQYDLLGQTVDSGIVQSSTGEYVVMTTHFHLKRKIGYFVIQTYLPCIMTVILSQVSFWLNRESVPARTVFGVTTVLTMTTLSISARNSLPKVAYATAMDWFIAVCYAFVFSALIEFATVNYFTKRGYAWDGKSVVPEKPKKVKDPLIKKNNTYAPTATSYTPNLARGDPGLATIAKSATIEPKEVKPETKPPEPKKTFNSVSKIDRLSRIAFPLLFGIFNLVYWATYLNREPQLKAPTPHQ
D(3) dopamine receptor, sequence (P35462 whole entry): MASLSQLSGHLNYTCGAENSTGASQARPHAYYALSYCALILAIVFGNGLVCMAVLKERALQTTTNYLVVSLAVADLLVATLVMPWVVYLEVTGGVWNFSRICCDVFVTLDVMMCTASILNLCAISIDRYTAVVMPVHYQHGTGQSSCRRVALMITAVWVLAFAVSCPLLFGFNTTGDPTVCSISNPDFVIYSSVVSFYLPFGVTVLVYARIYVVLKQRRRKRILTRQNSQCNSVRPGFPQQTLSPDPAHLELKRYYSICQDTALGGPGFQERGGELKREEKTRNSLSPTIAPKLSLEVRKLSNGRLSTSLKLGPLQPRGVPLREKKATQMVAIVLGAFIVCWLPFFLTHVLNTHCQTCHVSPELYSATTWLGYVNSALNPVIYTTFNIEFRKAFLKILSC
Sodium-dependent noradrenaline transporter, sequence (P23975 whole entry): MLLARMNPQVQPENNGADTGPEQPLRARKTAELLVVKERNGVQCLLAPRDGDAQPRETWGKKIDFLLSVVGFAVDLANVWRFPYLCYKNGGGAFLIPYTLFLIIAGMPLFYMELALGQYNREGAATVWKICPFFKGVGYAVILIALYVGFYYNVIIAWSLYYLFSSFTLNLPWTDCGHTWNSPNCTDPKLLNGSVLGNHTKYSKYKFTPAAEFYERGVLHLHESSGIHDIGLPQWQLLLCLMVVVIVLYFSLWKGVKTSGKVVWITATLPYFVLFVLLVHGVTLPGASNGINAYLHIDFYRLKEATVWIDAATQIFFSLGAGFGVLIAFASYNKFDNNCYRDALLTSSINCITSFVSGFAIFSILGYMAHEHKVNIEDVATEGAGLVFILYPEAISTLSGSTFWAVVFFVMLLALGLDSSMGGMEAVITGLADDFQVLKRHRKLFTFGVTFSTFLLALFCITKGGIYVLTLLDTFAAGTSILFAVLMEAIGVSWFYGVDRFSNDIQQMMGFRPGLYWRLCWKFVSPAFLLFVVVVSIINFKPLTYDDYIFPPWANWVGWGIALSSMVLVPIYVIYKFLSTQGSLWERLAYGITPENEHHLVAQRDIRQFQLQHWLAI
cGMP-inhibited 3',5'-cyclic phosphodiesterase 3A, sequence (Q14432 whole entry): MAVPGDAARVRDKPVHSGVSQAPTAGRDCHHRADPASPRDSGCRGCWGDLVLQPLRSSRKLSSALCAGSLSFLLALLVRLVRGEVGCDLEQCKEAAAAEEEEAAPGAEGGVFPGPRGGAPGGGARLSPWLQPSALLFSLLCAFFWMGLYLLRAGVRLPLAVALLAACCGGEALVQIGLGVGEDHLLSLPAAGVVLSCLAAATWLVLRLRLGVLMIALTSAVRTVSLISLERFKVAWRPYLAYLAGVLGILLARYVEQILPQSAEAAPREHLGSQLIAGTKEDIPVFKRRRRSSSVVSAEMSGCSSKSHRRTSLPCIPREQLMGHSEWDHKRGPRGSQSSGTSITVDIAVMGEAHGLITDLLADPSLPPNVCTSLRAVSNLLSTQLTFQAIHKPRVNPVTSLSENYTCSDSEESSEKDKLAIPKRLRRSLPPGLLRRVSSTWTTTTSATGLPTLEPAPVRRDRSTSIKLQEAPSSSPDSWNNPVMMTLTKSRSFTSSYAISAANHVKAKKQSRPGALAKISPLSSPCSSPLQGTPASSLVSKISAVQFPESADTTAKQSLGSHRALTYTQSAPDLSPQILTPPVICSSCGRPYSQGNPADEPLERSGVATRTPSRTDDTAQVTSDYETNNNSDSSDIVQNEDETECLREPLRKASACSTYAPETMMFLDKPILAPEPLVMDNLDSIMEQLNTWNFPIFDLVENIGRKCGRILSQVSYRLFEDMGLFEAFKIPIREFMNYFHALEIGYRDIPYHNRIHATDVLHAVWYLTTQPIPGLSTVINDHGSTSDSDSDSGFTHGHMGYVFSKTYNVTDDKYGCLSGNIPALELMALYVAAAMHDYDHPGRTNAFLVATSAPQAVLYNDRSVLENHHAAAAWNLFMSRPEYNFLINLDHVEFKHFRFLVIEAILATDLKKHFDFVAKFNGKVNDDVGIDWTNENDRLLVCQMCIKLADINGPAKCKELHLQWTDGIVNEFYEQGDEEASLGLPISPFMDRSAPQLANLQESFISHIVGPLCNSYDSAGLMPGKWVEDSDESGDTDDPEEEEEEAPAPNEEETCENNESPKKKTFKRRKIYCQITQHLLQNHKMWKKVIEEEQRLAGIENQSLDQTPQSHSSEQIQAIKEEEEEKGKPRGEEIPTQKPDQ

For `C[N+]1(C)CCC(OC(=O)C(O)(c2ccccc2)C2CCCC2)C1` (configuration not stated) [GLYCOPYRRONIUM BROMIDE], the AC50 [1] was greater than 300 µM, the AC50 [2] was greater than 30 µM and the AC50 [3] was greater than 30 µM. It also gave an AC50 [4] greater than 10 µM.
For `O=C(Cc1ccc(-c2ccccc2)cc1)Nc1ccccn1` [DIFENPIRAMIDE], the AC50 [5] was greater than 30 µM, the AC50 [6] was greater than 30 µM and the AC50 [7] was greater than 30 µM. The AC50 [8] was greater than 30 µM, the AC50 [3] was greater than 30 µM and the AC50 [9] was greater than 30 µM.
`C1CCC(C(CC2CCCCN2)C2CCCCC2)CC1` (configuration not stated) [PERHEXILINE] was tested, and the AC50 [5] was 16.5 µM, the AC50 [1] was 72 µM and the AC50 [10] was 7.24 µM. The AC50 [6] was greater than 30 µM, the AC50 [2] was greater than 30 µM and the AC50 [11] was 7.05 µM. For the same compound, the AC50 [12] was greater than 30 µM, the AC50 [7] was greater than 30 µM and the AC50 [8] was greater than 30 µM. For the same compound, the AC50 [13] was greater than 30 µM, the AC50 [3] was greater than 30 µM and the AC50 [4] was 29 µM.
With `CCC1=C(C)CN(C(=O)NCCc2ccc(S(=O)(=O)NC(=O)N[C@H]3CC[C@H](C)CC3)cc2)C1=O` [GLIMEPIRIDE] the AC50 [1] was 14 µM.
`C=CCc1ccccc1OCC(O)CNC(C)C` (configuration not stated) [ALPRENOLOL] was tested, and the AC50 [5] was 14.4 µM, the AC50 [10] was 30 µM and the AC50 [6] was greater than 30 µM. For the same compound, the AC50 [2] was greater than 30 µM, the AC50 [11] was greater than 30 µM and the AC50 [12] was greater than 30 µM. It also gave an AC50 [7] greater than 30 µM, an AC50 [8] greater than 30 µM and an AC50 [13] greater than 30 µM. The AC50 [3] was greater than 30 µM, the AC50 [9] was greater than 30 µM and the AC50 [4] was greater than 30 µM.
`CS(=O)(=O)c1ccc(C2=C(c3ccccc3)C(=O)OC2)cc1` [ROFECOXIB] showed an AC50 [5] greater than 10 µM, an AC50 [10] greater than 10 µM and an AC50 [6] greater than 10 µM. For the same compound, the AC50 [2] was greater than 30 µM, the AC50 [11] was greater than 10 µM and the AC50 [12] was greater than 30 µM. The AC50 [7] was greater than 10 µM, the AC50 [8] was 4.7 µM and the AC50 [3] was greater than 30 µM. It also gave an AC50 [9] greater than 30 µM and an AC50 [4] greater than 10 µM.
`O=C(CCNNC(=O)c1ccncc1)NCc1ccccc1` [NIALAMIDE] gave an AC50 [1] greater than 300 µM.
`OCCN1C[C@H](O)[C@@H](O)[C@H](O)[C@H]1CO` [MIGLITOL] was tested, and the AC50 [1] was greater than 300 µM.
`C[N+](C)(C)CCO` [CHOLINE] showed an AC50 [1] greater than 300 µM.
`COc1cc(NC(C)CCCN)c2ncccc2c1` (configuration not stated) [PRIMAQUINE] was tested, and the AC50 [1] was 61 µM, the AC50 [2] was greater than 30 µM and the AC50 [12] was greater than 30 µM. It also gave an AC50 [13] greater than 30 µM, an AC50 [3] of 2.9 µM and an AC50 [4] greater than 30 µM.
In the case of `CCc1oc2ccccc2c1C(=O)c1cc(I)c(O)c(I)c1` [BENZIODARONE], the AC50 [1] is reported as 6.3 µM.
`CC(C)C[C@H]1C(=O)N2CCC[C@H]2[C@]2(O)O[C@](NC(=O)[C@@H]3C=C4c5cccc6[nH]c(Br)c(c56)C[C@H]4N(C)C3)(C(C)C)C(=O)N12` [BROMOCRIPTINE] was tested, and the AC50 [1] was 1.6 µM, the AC50 [10] was greater than 30 µM and the AC50 [6] was 1.52 µM. It also gave an AC50 [2] greater than 30 µM, an AC50 [11] greater than 30 µM and an AC50 [12] greater than 30 µM. The AC50 [7] was 0.105 µM, the AC50 [8] was greater than 30 µM and the AC50 [13] was greater than 30 µM. It also gave an AC50 [3] greater than 30 µM and an AC50 [4] greater than 30 µM.
`CCCCCCOc1nsnc1C1=CCCN(C)C1` [XANOMELINE] gave an AC50 [1] greater than 300 µM.
`O=C(O)c1cc(O)ccc1O` [GENTISIC ACID] was tested, and the AC50 [1] was greater than 300 µM and the AC50 [13] was 18 µM.
`CC(C)Nc1ncccn1` [ISAXONINE] gave an AC50 [1] greater than 300 µM.
With `CC(C)(S)[C@@H](N)C(=O)O` [PENICILLAMINE] the AC50 [1] was greater than 300 µM.
In the case of `CCOC(=O)[C@H](CCc1ccccc1)N[C@@H](C)C(=O)N1[C@H](C(=O)O)C[C@H]2CCCC[C@@H]21` [TRANDOLAPRIL], the AC50 [1] is reported as 220 µM.
`C=C[C@H]1C[N@@]2CC[C@H]1C[C@H]2[C@H](O)c1ccnc2ccc(OC)cc12` [QUININE] showed an AC50 [1] greater than 300 µM.
Compound `COC(c1ccccc1)(c1ccccc1)[C@H](Oc1nc(C)cc(C)n1)C(=O)O` [AMBRISENTAN] has an AC50 [1] of 200 µM.
With `CCCN1C[C@H](CSC)C[C@@H]2c3cccc4[nH]cc(c34)C[C@H]21` [PERGOLIDE] the AC50 [5] was 1.04 µM, the AC50 [1] was greater than 10 µM and the AC50 [10] was greater than 30 µM. The AC50 [2] was greater than 30 µM, the AC50 [11] was 14.9 µM and the AC50 [12] was greater than 30 µM. The AC50 [8] was greater than 30 µM, the AC50 [13] was greater than 30 µM and the AC50 [3] was greater than 30 µM. It also gave an AC50 [4] greater than 30 µM.
With `CN(C)CC(c1ccc(O)cc1)C1(O)CCCCC1` (configuration not stated) [DESVENLAFAXINE] the AC50 [1] was greater than 300 µM.
Compound `CC(C)(C)NC[C@H](O)COc1ccccc1C1CCCC1` [PENBUTOLOL] has an AC50 [1] greater than 300 µM.
